Results as given in patent publication EP0727211A1, “Use of src SH2 specific compounds to treat a bone resorption disease” (SMITHKLINE BEECHAM CORPORATION, priority 1995, dated 1996).

Biological target: T1, human lck SH2 domain (Homo sapiens, UniProt P06239)
T1 construct: Cloning and expression of human lck SH2 domain containing tags and an enterokinase proteolytic cleavage site; made in house; host or cells: E. coli AR120
Test: SH2 domain / pY peptide binding assay (ELISA-based, 96 well plate), lck SH2
Conditions: Ki calculated from IC50 by the expanded equation; Table II
Protocol: The inhibitory activity of compounds at the different human SH2 domains was determined in vitro using SH2 domains expressed as fusion proteins in E. coli. The SH2 domains used herein were the human forms of the src SH2 domain, Grb2 SH2 domain, lck SH2 domain, fyn SH2 domain, SH-PTP2 SH2 domain, p85 SH2 domain and hcp SH2 domain.
The fusion proteins containing the src, lck and hcp SH2 domains were expressed as the general sequence: DET1-DET2-spacer-ek-SH2, where DETI, DET2, spacer, ek and SH2 are as described below. DET1 ("defined epitope tag 1") (SEQ ID NO: 1) is an 11 amino acid sequence found in the Human Immunodeficiency Virus Type 1 (HIV-1) envelope protein gp120 (or gp160). Monoclonal antibodies to various epitopes of HIV-1 gp120 (or gp160) are known in the art, see, for example U.S. Patent 5,166,050. One preferred example is monoclonal antibody 178.1 (see, e.g., Thiriart et al., J. Immunol., 143:1832-1836 (1989)), which was prepared by immunization of mice with a yeast-expressed HIV-1 gp160 molecule from strain BH10 (Ratner et al., Nature, 313:277-284 (1985)). This tag was used for detection of expression (by Western blot), for purification of the protein (by affinity chromatography), and for configuring assays in which the fusion protein was captured or immobilized using the 178.1 antibody. DET2 is a hexahistidine sequence tag (SEQ ID NO: 2) which binds to nickel-containing resins and was used for purification purposes. Spacer (SEQ ID NO: 3) was utilized to design a BamH1 restriction site at the indicated position of the construct. The term -ekrefers to a recognition sequence (SEQ ID NO: 4) for the enterokinase protease which provides for the optional removal of the tags from the SH2 domain, thus producing an SH2 domain that contains no extraneous amino acids. SH2 domains which contain no extraneous amino acids are preferable to tagged protein for crystallography studies. SH2 refers to the SH2 domains of different proteins.
Cloning and expression of human lck SH2 domain containing tags and an enterokinase proteolytic cleavage site (DET1-DET2-spacer-ek-lck SH2).
A DNA sequence encoding protein ek-lck SH2 was PCR amplified from a cDNA clone containing the human lck gene (Genbank accession number M36881) using the following primers: [formula]
The PCR product was digested with BamHI and XbaI, followed by isolation of the digested fragment on an agarose gel. The fragment was ligated into BamHI-XbaI-digested expression vector containing the tagged chicken src gene DET1-DET2-spacer-SH2 described in Procedure 1 above. In that vector, the BamHI site is located in between the coding regions for DET2 and SH2, and the XbaI site is located after the 3' end of the SH2 coding region. Thus, the ek-lck SH2 sequence replaced the src SH2 sequence in the above vector. The ligation reaction was used to transform E. coli MM294cI^+. The construct containing […] was confirmed by DNA sequencing (SEQ ID NO: 6) and induced in E. coli strain AR120 as described in Procedure 1 above. A Coomassie-Blue-stained, Western-blot-positive induced protein band with an apparent molecular weight of 17,000 was observed after nalidixic acid induction.
Cells were lysed at neutral pH by sonication in the presance of lysozyme. After centrifugation, the soluble extract was chromatographed on a Ni^++NTA column. After washing the column with equilibration buffer (Tris buffer pH 8 containing 0.5 M NaCl) and the same buffer containing 15 mM imidazole, the protein was eluted in highly purified form with 25 mM imidazole in equilibration buffer.
The binding assays for the SH2 domains and pY peptides were performed in an ELISA-based 96 well plate assay. In Millipore 96 well filter plates, hydrophilic Durapore® (pore size 0.65um Cat. No. MADVN6550), was added 2 ul (50% suspension) of Protein-G Sepharose (available from Pharmacia of N.J. Cat. No. 17-0618-01) and either 2 ul of 2 mg/ml of MAB178. […]

T1 sequence (P06239 127-224 limits assumed): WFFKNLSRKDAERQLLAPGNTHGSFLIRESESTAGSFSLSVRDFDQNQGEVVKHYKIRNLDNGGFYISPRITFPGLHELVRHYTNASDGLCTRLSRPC

- Ki: 50 µM
Structure (SMILES): CCCCCCNC(=O)[C@H]1CC[C@H](CNC(=O)c2ccc(C(=O)c3ccc(C(=O)O)cc3)cc2)CC1 [Compound 6, 4-carboxy-benzophenone-4-carboxamido-trans-4-methyl-cyclohexyl-N-hexyl carboxamide]
